US20060241078A1, “Pharmaceutical compositions comprising a contraceptive agent in solution and a teratogen” (priority 2005, published 2006)

Assay: Solubility of estrogen and progestin in solubilizing agents and oils (visual, dropwise solvent addition);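 also: about 10 mg estrogen or progestin titrated with solubilizing agent or oil, added dropwise with shaking until fully dissolved, completion judged by eye under light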
[1] = solvent/oil: MAPEG 400 DO PEG ester
[2] = solvent/oil: Supernatant of soybean oil containing isotretinoin (40 mg isotretinoin particles in 1 gram of oil, particles removed by centrifugation)

Solubility (solvent/oil: Crodamol EO) | Solubility (solvent/oil: Crodamol GTCC-PN) | Solubility (solvent/oil: Crovol A40) | Solubility (solvent/oil: Ethanol) | Solubility [1] | Solubility (solvent/oil: Myvacet 9-45K) | Solubility (solvent/oil: Soybean oil) | Solubility [2] | Structure (SMILES)
14.42 mg drug/g solvent or oil | 17.94 mg drug/g solvent or oil | 15.85 mg drug/g solvent or oil | 49.46 mg drug/g solvent or oil | 9.34 mg drug/g solvent or oil | 14.47 mg drug/g solvent or oil | 6.41 mg drug/g solvent or oil | 3.92 mg drug/g solvent or oil | C#C[C@]1(OC(C)=O)CC[C@H]2[C@@H]3CCC4=CC(=O)CC[C@@H]4[C@H]3CC[C@@]21C [Norethindrone Acetate, norethindrone acetate]
12.94 mg drug/g solvent or oil | 12.03 mg drug/g solvent or oil | 21.37 mg drug/g solvent or oil | 206 mg drug/g solvent or oil | 12.08 mg drug/g solvent or oil | 18.08 mg drug/g solvent or oil | 5.32 mg drug/g solvent or oil | 2.89 mg drug/g solvent or oil | C#C[C@]1(O)CC[C@H]2[C@@H]3CCc4cc(O)ccc4[C@H]3CC[C@@]21C [Ethinyl estradiol, ethinyl estradiol]
2.6 mg drug/g solvent or oil | 3.4 mg drug/g solvent or oil | 6.7 mg drug/g solvent or oil | 20.5 mg drug/g solvent or oil | 9.5 mg drug/g solvent or oil | 4.3 mg drug/g solvent or oil | 1.9 mg drug/g solvent or oil | 0.802 mg drug/g solvent or oil | C#C[C@]1(OC(C)=O)CC[C@H]2[C@@H]3CCC4=CC(=NO)CC[C@@H]4[C@H]3CC[C@@]21CC (mixture of isomers) [Norgestimate, norgestimate]
